Assay results taken from patent US20260193293A1, “PEPTIDES CAPABLE OF INHIBITING PROTEIN-PROTEIN INTERACTIONS AT GABAB1A SUBUNIT AND USES THEREOF” (UNIVERSITY OF COPENHAGEN, priority 2022, published 2026).
Like-named read-outs stand apart in the source and are kept apart here. Residues, ends and D or L forms follow the SMILES beside them.

Biological target: Sushi domains (SD1/2) protein
Assay: Fluorescence polarization (FP) competition assay with AJAP-1probe, calculated Ki
Format: binding
In short: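 Ki values were derived from IC50s (sigmoidal fits, ≥ triplicate), with probe Kd obtained by saturation titration of SD1/2. Peptides displaced a 25 nM TAMRA-labelled probe; polarization read at 530/580 nm in 1% BSA-containing PBS, pH 7.4, room temperature.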

[1] = CPP tagged peptides overview, SD1/2 binding affinity, mean ± SEM, n ≥ 3, read-out: Ki
[2] = Table 14, CPPs tagged peptides, read-out: Ki (nM) mean ± SEM
[3] = Table 1, affinity maturation, mean ± SEM, n ≥ 3, read-out: Ki
[4] = Table 13, peptides for affinity maturation, read-out: Ki (nM) mean ± SEM
[5] = Table 16, ncAAs incorporated peptides, read-out: Ki (nM) mean ± SEM

`CC[C@H](C)[C@H](NC(=O)[C@H](Cc1c[nH]c2ccccc12)NC(=O)[C@H](CC(=O)O)NC(=O)[C@H](CC(=O)O)NC(=O)[C@H](CC(=O)O)NC(=O)[C@H](CCC(=O)O)NC(C)=O)C(=O)N[C@@H](CC(=O)O)C(=O)N[C@@H](Cc1c[nH]c2ccccc12)C(=O)NCC(=O)N1CCC[C@H]1C(=O)N[C@H](C(=O)N[C@@H](CO)C(=O)N[C@@H](CC(=O)O)C(=O)N[C@@H](CC(=O)O)C(=O)N[C@@H](CC(=O)O)C(=O)NCC(=O)NCC(=O)NCC(=O)NCC(=O)N[C@@H](CO)C(=O)N[C@@H](CCCNC(=N)N)C(=O)N[C@@H](CCCNC(=N)N)C(=O)N[C@@H](CCCNC(=N)N)C(=O)N[C@@H](CCCNC(=N)N)C(=O)N[C@@H](CCCNC(=N)N)C(=O)N[C@@H](CCCNC(=N)N)C(=O)N[C@@H](CCCNC(=N)N)C(=O)N[C@@H](CCCNC(=N)N)C(N)=O)[C@@H](C)O` [Peptide 17-FL-R8] (Ac-EDDDWIDWGPTSDDDGGGGSRRRRRRRR-NH2) showed a Ki [1] of 147 ± 9 nM and a Ki [2] of 147 ± 9 nM.
Molecule `CC[C@H](C)[C@H](NC(=O)[C@H](Cc1c[nH]c2ccccc12)NC(=O)[C@H](CC(=O)O)NC(=O)[C@H](CC(=O)O)NC(=O)[C@H](CC(=O)O)NC(=O)[C@H](CCC(=O)O)NC(C)=O)C(=O)N[C@@H](CC(=O)O)C(=O)N[C@@H](Cc1c[nH]c2ccccc12)C(=O)NCC(=O)N1CCC[C@H]1C(=O)N[C@H](C(=O)N[C@@H](CO)C(=O)N[C@@H](CC(=O)O)C(=O)N[C@@H](CC(=O)O)C(=O)N[C@@H](CC(=O)O)C(=O)N[C@@H](CCCNC(=N)N)C(=O)N[C@@H](CCCNC(=N)N)C(=O)N[C@@H](CCCNC(=N)N)C(=O)N[C@@H](CCCNC(=N)N)C(=O)N[C@@H](CCCNC(=N)N)C(=O)N[C@@H](CCCNC(=N)N)C(=O)N[C@@H](CCCNC(=N)N)C(=O)N[C@@H](CCCNC(=N)N)C(N)=O)[C@@H](C)O` [Peptide 17-R8] (Ac-EDDDWIDWGPTSDDDRRRRRRRR-NH2) has a Ki [1] of 123 ± 4 nM and a Ki [2] of 123 ± 4 nM.
`CC[C@H](C)[C@H](NC(=O)[C@H](Cc1c[nH]c2ccccc12)NC(=O)[C@H](CC(=O)O)NC(=O)[C@H](CC(=O)O)NC(=O)[C@H](CC(=O)O)NC(=O)[C@H](CCC(=O)O)NC(C)=O)C(=O)N[C@@H](CC(=O)O)C(=O)N[C@@H](Cc1c[nH]c2ccccc12)C(=O)NCC(=O)N1CCC[C@H]1C(=O)N[C@H](C(=O)N[C@@H](CO)C(=O)N[C@@H](CC(=O)O)C(=O)N[C@@H](CC(=O)O)C(=O)N[C@@H](CC(=O)O)C(=O)N[C@@H](CCC(=O)O)C(=O)N[C@@H](C)C(=O)N[C@@H](C)C(=O)N[C@@H](C)C(=O)N[C@@H](CCCCN)C(=O)N[C@@H](CCCNC(=N)N)C(=O)N[C@@H](CCCNC(=N)N)C(=O)N[C@@H](CCCNC(=N)N)C(=O)N[C@@H](CCCNC(=N)N)C(=O)N[C@@H](CCCNC(=N)N)C(=O)N[C@@H](CCCNC(=N)N)C(=O)N[C@@H](CCCNC(=N)N)C(=O)N[C@@H](CCCNC(=N)N)C(N)=O)[C@@H](C)O` [Peptide 17-RL-R8] (Ac-EDDDWIDWGPTSDDDEAAAKRRRRRRRR-NH2) was tested, and the Ki [1] was 139 ± 2 nM and the Ki [2] was 139 ± 2 nM.
For `CC[C@H](C)[C@H](NC(=O)[C@H](Cc1c[nH]c2ccccc12)NC(=O)[C@H](CC(=O)O)NC(=O)[C@H](CC(=O)O)NC(=O)[C@H](CC(=O)O)NC(=O)[C@H](CCC(=O)O)NC(C)=O)C(=O)N[C@@H](CC(=O)O)C(=O)N[C@@H](Cc1c[nH]c2ccccc12)C(=O)NCC(=O)N1CCC[C@H]1C(=O)N[C@H](C(=O)N[C@@H](CO)C(=O)N[C@@H](CC(=O)O)C(=O)N[C@@H](CC(=O)O)C(=O)N[C@@H](CC(=O)O)C(=O)N[C@@H](Cc1ccc(O)cc1)C(=O)NCC(=O)N[C@@H](CCCNC(=N)N)C(=O)N[C@@H](CCCCN)C(=O)N[C@@H](CCCCN)C(=O)N[C@@H](CCCNC(=N)N)C(=O)N[C@@H](CCCNC(=N)N)C(=O)N[C@@H](CCC(N)=O)C(=O)N[C@@H](CCCNC(=N)N)C(=O)N[C@@H](CCCNC(=N)N)C(=O)N[C@@H](CCCNC(=N)N)C(N)=O)[C@@H](C)O` [Peptide 17-Tat] (Ac-EDDDWIDWGPTSDDDYGRKKRRQRRR-NH2), the Ki [1] was 79 ± 1 nM and the Ki [2] was 78.5 ± 1 nM.
Work on `CC[C@H](C)[C@H](NC(=O)[C@H](Cc1ccc(O)cc1)NC(=O)[C@H](CC(=O)O)NC(=O)[C@H](CC(=O)O)NC(=O)[C@H](CCC(=O)O)NC(C)=O)C(=O)N[C@@H](CC(=O)O)C(=O)N[C@@H](Cc1c[nH]c2ccccc12)C(=O)N[C@@H](Cc1ccc(O)cc1)C(=O)N[C@@H](CC(=O)O)C(=O)N[C@@H](CO)C(=O)N[C@@H](CC(=O)O)C(=O)N[C@@H](CC(=O)O)C(=O)N[C@@H](CC(=O)O)C(N)=O` [Peptide 18] (Ac-EDDYIDWYDSDDD-NH2) yielded a Ki [3] of 4.6 ± 0.3 nM and a Ki [4] of 4.6 ± 0.3 nM.
Molecule `CC[C@H](C)[C@H](NC(=O)[C@H](Cc1ccc(O)cc1)NC(=O)[C@H](CC(=O)O)NC(=O)[C@H](CC(=O)O)NC(=O)[C@H](CCC(=O)O)NC(C)=O)C(=O)N[C@@H](CC(=O)O)C(=O)N[C@@H](Cc1c[nH]c2ccccc12)C(=O)NCC(=O)N1CCC[C@H]1C(=O)N[C@H](C(=O)N[C@@H](CO)C(=O)N[C@@H](CC(=O)O)C(=O)N[C@@H](CC(=O)O)C(=O)N[C@@H](CC(=O)O)C(N)=O)[C@@H](C)O` [Peptide 19] (Ac-EDDYIDWGPTSDDD-NH2) has a Ki [3] of 3.8 ± 0.2 nM and a Ki [4] of 3.8 ± 0.2 nM.
In the case of `CC[C@H](C)[C@H](NC(=O)[C@H](Cc1ccccc1)NC(=O)[C@H](CCC(=O)O)NC(=O)[C@@H](NC(=O)[C@H](CCC(=O)O)NC(C)=O)[C@@H](C)O)C(=O)N[C@@H](CC(=O)O)C(=O)N[C@@H](Cc1c[nH]c2ccccc12)C(=O)NCC(=O)N1CCC[C@H]1C(=O)N[C@H](C(=O)NCC(=O)N[C@@H](CC(=O)O)C(=O)N[C@@H](CCC(=O)O)C(=O)N[C@@H](CC(=O)O)C(N)=O)[C@@H](C)O` [Peptide 26, Ac-ETEFIDWGPTGDED-NH2] (Ac-ETEFIDWGPTGDED-NH2), the Ki (Table 11, deep mutational scanning validation variants of AJAP-1WT, read-out: Ki (nM) mean ± SEM) is reported as 9 ± 1 nM, the Ki (purified peptides, read-out: Ki) is reported as 9 nM and the “fold improved affinity relative to the wild type” value (relative to AJAP-1WT) is reported as 3 fold. For the same molecule, the Ki (unit inferred, read-out: Ki) was 9 nM.
For `CC[C@H](C)[C@H](NC(=O)[C@H](Cc1c[nH]c2ccccc12)NC(=O)[C@H](CO)NC(=O)[C@H](CC(=O)O)NC(=O)[C@H](CC(=O)O)NC(=O)[C@H](CCC(=O)O)NC(C)=O)C(=O)N[C@@H](Cc1c[nH]c2ccccc12)C(=O)N[C@@H](Cc1c[nH]c2ccccc12)C(=O)NCC(=O)N1CCC[C@H]1C(=O)N[C@H](C(=O)NCC(=O)N[C@@H](CC(=O)O)C(=O)N[C@@H](CCC(=O)O)C(=O)N[C@@H](CC(=O)O)C(N)=O)[C@@H](C)O` [Peptide 27, Ac-EDDSWIWWGPTGDED-NH2] (Ac-EDDSWIWWGPTGDED-NH2), the Ki [3] was 16 ± 1 nM, the Ki [4] was 16 ± 1 nM and the “fold better affinity than 9” value (comparator printed as 9) was 3.8 fold.
`CC[C@H](C)[C@H](NC(=O)[C@H](Cc1c[nH]c2ccccc12)NC(=O)[C@H](CO)NC(=O)[C@H](CC(=O)O)NC(=O)[C@H](CC(=O)O)NC(=O)[C@H](CCC(=O)O)NC(C)=O)C(=O)N[C@@H](Cc1c[nH]c2ccccc12)C(=O)N[C@@H](Cc1c[nH]c2ccccc12)C(=O)N[C@@H](Cc1ccc(O)cc1)C(=O)NCC(=O)N[C@@H](C)C(=O)N[C@@H](CC(=O)O)C(=O)N[C@H](C(=O)N[C@@H](CC(=O)O)C(N)=O)[C@@H](C)O` [Peptide 28] (Ac-EDDSWIWWYGADTD-NH2) showed a Ki [3] of 18 ± 1 nM and a Ki [4] of 18 ± 1 nM.
For `CC[C@H](C)[C@H](NC(=O)[C@H](Cc1c[nH]c2ccccc12)NC(=O)[C@H](CO)NC(=O)[C@H](CC(=O)O)NC(=O)[C@H](CC(=O)O)NC(=O)[C@H](CCC(=O)O)NC(C)=O)C(=O)N[C@@H](CC(=O)O)C(=O)N[C@@H](Cc1c[nH]c2ccccc12)C(=O)NCC(=O)N1CCC[C@H]1C(=O)N[C@H](C(=O)NCC(=O)N[C@@H](CC(=O)O)C(=O)N[C@@H](CCC(=O)O)C(=O)N[C@@H](CC(=O)O)C(N)=O)[C@@H](C)O` [Peptide 29, Ac-EDDSWIDWGPTGDED-NH2] (Ac-EDDSWIDWGPTGDED-NH2), the Ki [3] was 5.6 ± 0.7 nM and the Ki [4] was 5.6 ± 0.7 nM.
For `CC[C@H](C)[C@H](NC(=O)[C@H](Cc1c[nH]c2ccccc12)NC(=O)[C@H](CO)NC(=O)[C@H](CC(=O)O)NC(=O)[C@H](CC(=O)O)NC(=O)[C@H](CCC(=O)O)NC(C)=O)C(=O)N[C@@H](CC(=O)O)C(=O)N[C@@H](Cc1c[nH]c2ccccc12)C(=O)N[C@@H](Cc1ccc(O)cc1)C(=O)NCC(=O)N[C@@H](C)C(=O)N[C@@H](CC(=O)O)C(=O)N[C@H](C(=O)N[C@@H](CC(=O)O)C(N)=O)[C@@H](C)O` [Peptide 30] (Ac-EDDSWIDWYGADTD-NH2), the Ki [3] was 11 ± 0.1 nM and the Ki [4] was 11 ± 0.1 nM.
`CCOc1ccc(C[C@H](NC(=O)[C@H](CC(=O)O)NC(=O)[C@H](CC(=O)O)NC(=O)[C@H](CC(=O)O)NC(=O)[C@H](CCC(=O)O)NC(C)=O)C(=O)N[C@H](C(=O)N[C@@H](CC(=O)O)C(=O)N[C@@H](Cc2c[nH]c3ccccc23)C(=O)N[C@@H](Cc2ccc(O)cc2)C(=O)N[C@@H](CC(=O)O)C(=O)N[C@@H](CO)C(=O)N[C@@H](CC(=O)O)C(=O)N[C@@H](CC(=O)O)C(=O)N[C@@H](CC(=O)O)C(N)=O)[C@@H](C)CC)cc1` [Peptide 32] gave a Ki [3] of 5.3 ± 0.2 nM and a Ki [5] of 5.3 ± 0.2 nM.
For `CC[C@H](C)[C@H](NC(=O)[C@H](Cc1ccc(OCc2ccccc2)cc1)NC(=O)[C@H](CC(=O)O)NC(=O)[C@H](CC(=O)O)NC(=O)[C@H](CC(=O)O)NC(=O)[C@H](CCC(=O)O)NC(C)=O)C(=O)N[C@@H](CC(=O)O)C(=O)N[C@@H](Cc1c[nH]c2ccccc12)C(=O)N[C@@H](Cc1ccc(O)cc1)C(=O)N[C@@H](CC(=O)O)C(=O)N[C@@H](CO)C(=O)N[C@@H](CC(=O)O)C(=O)N[C@@H](CC(=O)O)C(=O)N[C@@H](CC(=O)O)C(N)=O` [Peptide 33], the Ki [3] was 9.3 ± 0.2 nM and the Ki [5] was 9.3 ± 0.2 nM.
For `CCOc1ccc(C[C@H](NC(=O)[C@H](CC(=O)O)NC(=O)[C@H](CC(=O)O)NC(=O)[C@H](CC(=O)O)NC(=O)[C@H](CCC(=O)O)NC(C)=O)C(=O)N[C@H](C(=O)N[C@@H](CC(=O)O)C(=O)N[C@@H](Cc2c[nH]c3ccccc23)C(=O)NCC(=O)N2CCC[C@H]2C(=O)N[C@H](C(=O)N[C@@H](CO)C(=O)N[C@@H](CC(=O)O)C(=O)N[C@@H](CC(=O)O)C(=O)N[C@@H](CC(=O)O)C(N)=O)[C@@H](C)O)[C@@H](C)CC)cc1` [Peptide 34] (Ac-EDDDY(Et)IDWGPTSDDD-NH2), the Ki [3] was 6.5 ± 0.4 nM and the Ki [5] was 6.5 ± 0.4 nM.
